Columns and labels:
[1] = test system: Hep 3B2; assay: Induction of erythropoietin secretion in human Hep3B cells expressing human EPO at 10 uM by ELISA; assay type: functional
[2] = Cytotoxicity against human Hep3B cells after 48 hrs by MTT assay; assay type: functional, Hep 3B2
[3] = test system: Hep 3B2; assay: Induction of human erythropoietin gene expression in human Hep3B cells over expressing human EPO assessed as concentration required to produce 5-fold induction ratio by luciferase reporter gene assay relative to control; assay type: functional
[4] = test system: Hep 3B2; assay: Induction of human erythropoietin gene expression in human Hep3B cells over expressing human EPO assessed as maximum induction ratio at 4.3 uM by luciferase reporter gene assay relative to control; assay type: functional
[5] = test system: Hep 3B2; assay: Induction of human erythropoietin gene expression in human Hep3B cells over expressing human EPO assessed as maximum induction ratio at 6.5 uM by luciferase reporter gene assay relative to control; assay type: functional

SMILES | Activity [1] [mU/ml] | IC90 [2] [µM] | Activity [3] [µM] | Ratio [4] | Ratio [5]
Cc1cc(=O)c(O)cc2c1C[C@H]1CC(C)(C)/C=C/C[C@@]3(C)Oc4cc(O)c(=O)cc(C)c4C[C@@H]3C[C@H](O)[C@]1(C)O2 [PYCNIDIONE] | 34 | > 40 | 1.6 | 19 | –
C/C1=C\CC(C)(C)/C=C/C[C@@]2(C)Oc3cc(O)c(=O)cc(C)c3C[C@@H]2C[C@H]1O [EPOLONE B] | 40 | > 40 | 1.5 | – | 22
Cc1cc(=O)c(O)cc2c1C[C@H]1CC(C)(C)/C=C/C[C@@]3(C)Oc4cc(O)cc(C)c4C[C@@H]3C[C@H](O)[C@]1(C)O2 [EPOLONE A] | 45 | > 40 | 1 | 26 | –
